Source: the supplement of paper PMC12592484

Assays:
Experiment in all cases: drug sensitivity score (DSS2, normalised partial AUC of dose-response, 72 h CellTiter-Glo viability) (DSS (dimensionless)); higher = more sensitive (stronger growth inhibition / cytotoxicity); extreme values may be limits of the assay
PF179T = system: PF179T
Outline: (§1)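 Low-passage primary prostate cancer-associated fibroblasts, PF179T, WPMY-1, LNCaP and 22Rv1 cells were seeded into 384-well plates carrying pre-dispensed compounds at five doses covering a 10,000-fold range. After 72 h, viability was read by CellTiter-Glo 2.0 luminescence. Responses were scaled to vehicle and positive-control wells. The drug sensitivity score (DSS2) is a partial area under the fitted logistic dose–response curve divided by the log of its upper asymptote, computed in BREEZE; higher means more sensitive.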

22Rv1 = system: 22Rv1
Outline: as §1

WPMY-1 = system: WPMY-1
Outline: as §1

LNCAP = system: LNCAP
Outline: as §1

CAF#6 = system: CAF#6 (primary prostate cancer-associated fibroblasts of iCAF-like type)
Outline: as §1

CAF#7 = system: CAF#7 (primary prostate cancer-associated fibroblasts of myCAF-like type)
Outline: as §1

CAF#1 = system: CAF#1 (primary prostate cancer-associated fibroblasts of myCAF-like type)
Outline: as §1

CAF#5 = system: CAF#5 (primary prostate cancer-associated fibroblasts of myCAF-like type)
Outline: as §1

CAF#3 = system: CAF#3 (primary prostate cancer-associated fibroblasts of myCAF-like type)
Outline: as §1

CAF#2 = system: CAF#2 (primary prostate cancer-associated fibroblasts of iCAF-like type)
Outline: as §1

CAF#4 = system: CAF#4 (primary prostate cancer-associated fibroblasts of iCAF-like type)
Outline: as §1

Row | SMILES | drug sensitivity score (PF179T) | drug sensitivity score (22Rv1) | drug sensitivity score (WPMY-1) | drug sensitivity score (LNCAP) | drug sensitivity score (CAF#6) | drug sensitivity score (CAF#7) | drug sensitivity score (CAF#1) | drug sensitivity score (CAF#5) | drug sensitivity score (CAF#3) | drug sensitivity score (CAF#2) | drug sensitivity score (CAF#4)
1 | Cc1cc(Nc2cc(N3CCN(C)CC3)nc(Sc3ccc(NC(=O)C4CC4)cc3)n2)n[nH]1 [Tozasertib] (tested concentration range 1-10000 nM) | 8.2 | 5.5 | 14.5 | 7 | 3 | 4.7 | 3.2 | 3.5 | 4.9 | 8.4 | 3.2
2 | CC(=O)Nc1cccc(-n2c(=O)n(C3CC3)c(=O)c3c(Nc4ccc(I)cc4F)n(C)c(=O)c(C)c32)c1 [Trametinib] (tested concentration range 0-250 nM) | 1.8 | 11.8 | 5.5 | 0 | 1.7 | 4.2 | 3 | 2.7 | 0 | 5.5 | 1.3
3 | CC1=C(/C=C/C(C)=C/C=C/C(C)=C/C(=O)O)C(C)(C)CCC1 [Tretinoin] (tested concentration range 1-10000 nM) | 8.2 | 0 | 0 | 0 | 2.7 | 5 | 1.4 | 1.7 | 0.2 | 5 | 0
4 | NC(=S)N/N=C/c1ncccc1N [Triapine] (tested concentration range 1-10000 nM) | 2.2 | 4 | 4.9 | 3.2 | 1 | 0.8 | 0 | 1.3 | 0.6 | 3.3 | 0
5 | O=c1[nH]c(=O)n([C@H]2C[C@H](O)[C@@H](CO)O2)cc1C(F)(F)F [Trifluridine] (tested concentration range 1-10000 nM) | 0.1 | 5 | 4.7 | 4 | 0 | 0 | 0 | 0 | 0 | 1 | 0
6 | O=C(CCCCCCC(=O)Nc1ccc([C@H]2O[C@@H](CSc3nc(-c4ccccc4)c(-c4ccccc4)o3)C[C@@H](c3ccc(CO)cc3)O2)cc1)NO [Tubacin] (tested concentration range 1-10000 nM) | 3.4 | 5.6 | 5.3 | 7 | 1.1 | 3.3 | 2 | 2.3 | 0 | 2.4 | 1.4
7 | CN1CCc2c(c3ccccc3n2Cc2ccc(C(=O)NO)cc2)C1 [Tubastatin A] (tested concentration range 1-10000 nM) | 0 | 2.3 | 5.9 | 1.4 | 0 | 0 | 0 | 0 | 0.6 | 0.2 | 2.8
8 | Cc1cc(Nc2ncnc3ccc(NC4=NC(C)(C)CO4)cc23)ccc1Oc1ccn2ncnc2c1 [Tucatinib] (tested concentration range 0.2-2500 nM) | 0.1 | 0 | 0 | 0.6 | 0.1 | 0 | 0.4 | 0 | 0 | 0 | 0
9 | Nc1cc(F)ccc1NC(=O)c1ccc(CNC(=O)/C=C/c2cccnc2)cc1 [Tucidinostat] (tested concentration range 1-10000 nM) | 8.9 | 9.6 | 7.6 | 10.6 | 3.2 | 3.9 | 2.4 | 10.1 | 2.9 | 6 | 5.7
10 | COC(=O)c1ccc2c(c1)[nH]c1ncnc(NCCCN3CCCCC3)c12 [UM729] (tested concentration range 1-10000 nM) | 0.1 | 3.6 | 3.9 | 3.3 | 0 | 0.2 | 0 | 1.6 | 0.3 | 0 | 0
11 | COc1cc2c(NC3CCN(C(C)C)CC3)nc(C3CCCCC3)nc2cc1OCCCN1CCCC1 [UNC0638] (tested concentration range 1-10000 nM) | 5.2 | 7.2 | 6.1 | 6 | 6.5 | 6.6 | 0 | 0 | 7.7 | 0 | 0
12 | COc1cc2c(NC3CCN(C(C)C)CC3)nc(N3CCC(F)(F)CC3)nc2cc1OCCCN1CCCC1 [UNC0642] (tested concentration range 1-10000 nM) | 0 | 5.8 | 4.8 | 4.5 | 0.7 | 1.9 | 0 | 0 | 0 | 0 | 0
13 | O=C(c1ccc(C(=O)N2CCC(N3CCCC3)CC2)c(Nc2ccccc2)c1)N1CCC(N2CCCC2)CC1 [UNC1215] (tested concentration range 1-10000 nM) | 0 | 0 | 0 | 0 | 0 | 0 | 0 | 0 | 0 | 0 | 0
14 | CCCCNc1ncc(C(=O)NCc2ccc(-n3ccnc3)cc2)c(NC2CCC(O)CC2)n1 (stereo not given) [UNC2881] (tested concentration range 0.2-2500 nM) | 0 | 0 | 0 | 1.5 | 2 | 4.8 | 0.7 | 0.1 | 2.6 | 0.1 | 0.7
15 | CC(C)Nc1cc(-c2c[nH]c(C(=O)N[C@H](CO)c3cccc(Cl)c3)c2)c(Cl)cn1 [Ulixertinib] (tested concentration range 1-10000 nM) | 1.9 | 9.6 | 5.7 | 6.1 | 2 | 4.3 | 0.2 | 0.3 | 0 | 2.2 | 1.2
16 | CC(C)Oc1ccc(-c2nn([C@@H](C)c3oc4ccc(F)cc4c(=O)c3-c3cccc(F)c3)c3ncnc(N)c23)cc1F [Umbralisib] (tested concentration range 0.2-2500 nM) | 0 | 0 | 0 | 3.4 | 0 | 0 | 1.1 | 0 | 2.4 | 0.9 | 0
17 | CC[C@@H]1CN(C(=O)NCC(F)(F)F)C[C@@H]1c1cnc2cnc3[nH]ccc3n12 [Upadacitinib] (tested concentration range 1-10000 nM) | 0 | 0 | 0.5 | 0 | 0 | 0 | 0 | 0.8 | 0 | 1.3 | 0.1
18 | C=CC(=O)N1CC/C(=C\c2ccc(F)c([N+](=O)[O-])c2)C(=O)/C(=C/c2ccc(F)c([N+](=O)[O-])c2)C1 [VLX1570] (tested concentration range 1-10000 nM) | 22.2 | 26.9 | 29.3 | 21.4 | 17.5 | 19.5 | 26.9 | 25.1 | 17.3 | 29.7 | 28
19 | CNC(=O)c1ccccc1Nc1cc(Nc2ccc(N3CCOCC3)cc2OC)ncc1C(F)(F)F [VS-4718] (tested concentration range 1-10000 nM) | 7.5 | 7.9 | 6.8 | 4.5 | 8.9 | 12.4 | 12.9 | 13.1 | 8.1 | 11.9 | 7.3
20 | CCCC(CCC)C(=O)O [Valproic acid] (tested concentration range 100-1000000 nM) | 0 | 0 | 0 | 0 | 0 | 0 | 0 | 0 | 1.2 | 0 | 0
21 | CCCCC(=O)OCC(=O)[C@]1(O)Cc2c(O)c3c(c(O)c2[C@@H](O[C@H]2C[C@H](NC(=O)C(F)(F)F)[C@H](O)[C@H](C)O2)C1)C(=O)c1c(OC)cccc1C3=O [Valrubicin] (tested concentration range 0.5-5000 nM) | 9.6 | 14.3 | 14.9 | 20.6 | 9.4 | 11.4 | 8.6 | 8.4 | 8.7 | 9.3 | 4.9
22 | COc1cc2/c(=N/c3ccc(Br)cc3F)nc[nH]c2cc1OCC1CCN(C)CC1 [Vandetanib] (tested concentration range 0.1-1000 nM) | 0 | 0 | 0.4 | 0 | 0.1 | 0.2 | 5.1 | 4.4 | 2.4 | 6.4 | 4.6
23 | CCc1c(C(=O)C(N)=O)c2c(OCC(=O)O)cccc2n1Cc1ccccc1 [Varespladib] (tested concentration range 1-10000 nM) | 0 | 0 | 0 | 0 | 0 | 0 | 0 | 1.3 | 0 | 0 | 0
24 | C[C@]1(c2nc3c(C(N)=O)cccc3[nH]2)CCCN1 [Veliparib] (tested concentration range 1-10000 nM) | 0.5 | 1.4 | 0.8 | 0.7 | 1.7 | 1.2 | 1.2 | 0 | 2.6 | 1.5 | 0
25 | CCCS(=O)(=O)Nc1ccc(F)c(C(=O)c2c[nH]c3ncc(-c4ccc(Cl)cc4)cc23)c1F [Vemurafenib] (tested concentration range 1-10000 nM) | 2.8 | 3.4 | 1.9 | 3 | 0.8 | 1.6 | 4.3 | 4.7 | 4.4 | 5.3 | 3
